As a reminder, the EC50 is the concentration that produces a half-maximal response.

These results are taken from patent US20250179088A9 (ZYMEWORKS BC INC., priority 2020, published 2025).

In test [1] the target is T1, TLR8 (Homo sapiens, UniProt Q9NR97).
T1 sequence (Q9NR97 27-1041): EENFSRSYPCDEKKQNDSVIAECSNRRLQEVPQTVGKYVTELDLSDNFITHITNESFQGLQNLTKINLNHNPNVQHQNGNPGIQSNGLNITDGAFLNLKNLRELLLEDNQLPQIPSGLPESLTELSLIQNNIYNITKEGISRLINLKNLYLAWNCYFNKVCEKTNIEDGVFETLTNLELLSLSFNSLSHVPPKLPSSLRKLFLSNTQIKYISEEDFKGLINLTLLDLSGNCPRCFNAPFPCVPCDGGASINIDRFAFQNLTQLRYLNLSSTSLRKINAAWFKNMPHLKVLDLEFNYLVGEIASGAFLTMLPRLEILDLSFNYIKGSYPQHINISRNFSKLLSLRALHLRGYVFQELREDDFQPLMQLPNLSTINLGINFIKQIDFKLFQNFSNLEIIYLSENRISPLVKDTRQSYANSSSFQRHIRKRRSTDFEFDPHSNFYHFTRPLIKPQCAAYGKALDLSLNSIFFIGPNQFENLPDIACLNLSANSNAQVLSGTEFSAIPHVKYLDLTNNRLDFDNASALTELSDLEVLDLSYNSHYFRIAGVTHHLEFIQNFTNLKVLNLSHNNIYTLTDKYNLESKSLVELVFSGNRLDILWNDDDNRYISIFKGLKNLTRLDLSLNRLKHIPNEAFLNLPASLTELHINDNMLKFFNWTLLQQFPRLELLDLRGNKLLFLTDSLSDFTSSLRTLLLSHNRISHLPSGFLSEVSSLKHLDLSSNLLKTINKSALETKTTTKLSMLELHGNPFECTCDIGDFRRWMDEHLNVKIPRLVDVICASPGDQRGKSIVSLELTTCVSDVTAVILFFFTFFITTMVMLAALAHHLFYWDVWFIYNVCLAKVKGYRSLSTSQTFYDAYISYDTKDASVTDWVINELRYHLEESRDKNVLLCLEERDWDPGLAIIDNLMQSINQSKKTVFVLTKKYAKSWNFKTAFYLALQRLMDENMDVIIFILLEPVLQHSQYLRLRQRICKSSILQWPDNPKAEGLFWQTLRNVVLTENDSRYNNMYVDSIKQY
Kind of test: Reporter gene assay, HEK-Blue TLR8 reporter cells (SEAP). In general terms: Reporter assays use an easily measured gene product as a stand-in for the process of interest.
Description: (§1) 3×10^4 HEK-Blue™ TLR7 or 3×10^4 TLR8 reporter cells (InvivoGen, San Diego, CA) were treated with titrated (4-fold) amounts of test compound. […] Cells were incubated overnight at 37° C. and 5% CO2, then absorbance (620 and 655 nm) was read on a Synergy™ H1 microplate reader.

The target of test [2] is T2, TLR7 (Homo sapiens, UniProt Q9NYK1).
T2 sequence (Q9NYK1 27-1049): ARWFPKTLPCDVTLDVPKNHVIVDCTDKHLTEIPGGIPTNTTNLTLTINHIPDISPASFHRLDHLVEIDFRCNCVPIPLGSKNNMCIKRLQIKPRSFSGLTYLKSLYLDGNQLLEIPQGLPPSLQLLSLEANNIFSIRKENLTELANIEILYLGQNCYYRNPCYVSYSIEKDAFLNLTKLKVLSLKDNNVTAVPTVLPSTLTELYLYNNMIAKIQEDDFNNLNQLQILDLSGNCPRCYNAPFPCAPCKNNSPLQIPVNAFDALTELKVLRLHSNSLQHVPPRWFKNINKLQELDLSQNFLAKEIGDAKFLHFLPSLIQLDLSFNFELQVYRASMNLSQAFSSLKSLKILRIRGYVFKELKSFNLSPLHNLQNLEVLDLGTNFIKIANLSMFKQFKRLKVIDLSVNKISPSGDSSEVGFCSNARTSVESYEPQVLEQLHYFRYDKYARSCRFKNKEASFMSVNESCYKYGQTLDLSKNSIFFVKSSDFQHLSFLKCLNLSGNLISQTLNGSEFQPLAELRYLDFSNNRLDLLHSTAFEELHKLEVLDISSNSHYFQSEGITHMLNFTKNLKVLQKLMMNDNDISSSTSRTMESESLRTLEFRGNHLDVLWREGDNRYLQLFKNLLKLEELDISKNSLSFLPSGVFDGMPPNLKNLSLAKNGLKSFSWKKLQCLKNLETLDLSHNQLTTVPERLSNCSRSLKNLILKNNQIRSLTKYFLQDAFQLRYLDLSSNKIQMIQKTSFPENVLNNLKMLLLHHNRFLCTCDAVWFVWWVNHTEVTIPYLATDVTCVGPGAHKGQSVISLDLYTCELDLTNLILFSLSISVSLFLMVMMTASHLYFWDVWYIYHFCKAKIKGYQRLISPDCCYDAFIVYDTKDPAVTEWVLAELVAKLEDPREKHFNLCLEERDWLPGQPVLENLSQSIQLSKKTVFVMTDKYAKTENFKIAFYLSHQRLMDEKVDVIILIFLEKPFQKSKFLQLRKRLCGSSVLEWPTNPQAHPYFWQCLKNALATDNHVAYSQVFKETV
Kind of test: Reporter gene assay, HEK-Blue TLR7 reporter cells (SEAP).
Description: as §1

Test [3] has as its system PBMCs. Kind of test: PBMC assay, IL-6 release (HTRF). The format is cell-based. As to conditions: PBMCs from healthy donors, overnight, IL-6 induction by HTRF, average of quadruplicate. Background: Time-resolved FRET reads energy transfer from a long-lived donor to a nearby acceptor.
Test [4] relates to PBMCs. The test can be described thus: PBMC assay, TNF-α release (HTRF). The format is cell-based. The following applies: PBMCs from healthy donors, overnight, TNF-α induction by HTRF. As for the experimental part:
Whole peripheral blood was obtained from healthy donors. PBMCs were isolated from peripheral blood by density gradient centrifugation. […] Technologies, Vancouver, Canada) and centrifuged at 1200×G for 10 minutes in SepMate™ tubes (#15450, […] Technologies). The plasma layer containing PBMCs was poured into a new tube and washed twice. Isolated PBMCs were either used fresh or thawed from previously frozen. 1×10^5 PBMCs were cultured with titrating concentrations of compounds of Formula I overnight followed by assaying for cytokines by homogeneous time resolved fluorescence (HTRF). Compounds were dissolved in DMSO.

The structures appear in SMILES notation.

Turning to `CCCCc1nc2c(N)nc3ccsc3c2n1Cc1nc(CN(CC)CC)cs1` [Compound 233, 2-butyl-1-((4-((diethylamino)methyl)thiazol-2-yl)methyl)-1H-imidazo[4,5-d]thieno[3,2-b]pyridin-4-amine], the EC50 in test [1] was found to be 880 nM; in test [2], 140 nM; in test [3], 630 nM.

`CCCCc1nc2c(N)nc3ccsc3c2n1Cc1nc(CN2CCN(CCN3CCOCC3)CC2)cs1` [Compound 234, 2-butyl-1-((4-((4-(2-morpholinoethyl)piperazin-1-yl)methyl)thiazol-2-yl)methyl)-1H-imidazo[4,5-d]thieno[3,2-b]pyridin-4-amine]: the EC50 in test [1] is more than 1000 nM; in test [2], 270 nM; in test [3], more than 1000 nM.

On to `CCCCc1nc2c(N)nc3ccsc3c2n1Cc1nc(CNCCCCCO)cs1` [Compound 236, 5-(((2-((4-amino-2-butyl-1H-imidazo[4,5-d]thieno[3,2-b]pyridin-1-yl)methyl)thiazol-4-yl)methyl)amino)pentan-1-ol], for which the EC50 was 73 nM in test [1], more than 1000 nM in test [4], 310 nM in test [2] and 310 nM in test [3].

For `CCCCc1nc2c(N)nc3ccsc3c2n1Cc1nc(CNCc2ccc(CO)cc2)cs1` [Compound 237, (4-((((2-((4-amino-2-butyl-1H-imidazo[4,5-d]thieno[3,2-b]pyridin-1-yl)methyl)thiazol-4-yl)methyl)amino)methyl)phenyl)methanol], the EC50 in test [1] is more than 1000 nM; in test [2] it was 190 nM; in test [3] it was 500 nM.

For `CCCCc1nc2c(N)nc3ccsc3c2n1Cc1ncc(CNCC(C)(C)O)s1` [Compound 238, 1-(((2-((4-amino-2-butyl-1H-imidazo[4,5-d]thieno[3,2-b]pyridin-1-yl)methyl)thiazol-5-yl)methyl)amino)-2-methylpropan-2-ol], the concentration for a half-maximal effect (EC50) in test [1] was more than 1000 nM; in test [2], 420 nM; in test [3] it was more than 1000 nM.

As to `CCCCc1nc2c(N)nc3ccsc3c2n1Cc1nc(CN2CCNCC2)cs1` [Compound 242, 2-butyl-1-((4-(piperazin-1-ylmethyl)thiazol-2-yl)methyl)-1H-imidazo[4,5-d]thieno[3,2-b]pyridin-4-amine], the values for the EC50 in test [1], in test [2] and in test [3] were more than 1000 nM, 150 nM and more than 1000 nM, respectively.

Turning to `CCCCc1nc2c(N)nc3ccsc3c2n1Cc1ccc(CO)o1` [Compound 253, (5-((4-amino-2-butyl-1H-imidazo[4,5-d]thieno[3,2-b]pyridin-1-yl)methyl)furan-2-yl)methanol], the EC50 in test [1], in test [2] and in test [3] was more than 1000 nM in each case.

`CCCCc1nc2c(N)nc3ccsc3c2n1Cc1ccc(CNCCCCNC(=O)OCc2ccccc2)cc1` [Compound 260, benzyl (4-((4-((4-amino-2-butyl-1H-imidazo[4,5-d]thieno[3,2-b]pyridin-1-yl)methyl)benzyl)amino)butyl)carbamate]: the concentration giving a half-maximal response (EC50) in test [1] was more than 1000 nM; in test [2], 89 nM; in test [3], 719 nM.

`CCCCc1nc2c(N)nc3ccsc3c2n1Cc1ccc(CNc2ccc3c(c2)CCN(C(=O)OC(C)(C)C)C3)cc1` [Compound 261, tert-butyl 6-((4-((4-amino-2-butyl-1H-imidazo[4,5-d]thieno[3,2-b]pyridin-1-yl)methyl)benzyl)amino)-3,4-dihydroisoquinoline-2(1H)-carboxylate]: the EC50 in test [1] is more than 1000 nM; in test [2], 106 nM; in test [3], 602 nM.

As to `CCCCc1nc2c(N)nc3ccsc3c2n1Cc1ccc(CNC2CCCN(C(=O)OC(C)(C)C)C2)cc1` (stereo not shown) [Compound 262, tert-butyl 3-((4-((4-amino-2-butyl-1H-imidazo[4,5-d]thieno[3,2-b]pyridin-1-yl)methyl)benzyl)amino)piperidine-1-carboxylate], the EC50 in test [1] was more than 1000 nM; in test [2], 95 nM; in test [3], more than 1000 nM.

As to `CCCCc1nc2c(N)nc3ccsc3c2n1Cc1ccc(CN2CCC(CNC(=O)OC(C)(C)C)CC2)cc1` [Compound 263, tert-butyl ((1-(4-((4-amino-2-butyl-1H-imidazo[4,5-d]thieno[3,2-b]pyridin-1-yl)methyl)benzyl)piperidin-4-yl)methyl)carbamate], the EC50 in test [1] was more than 1000 nM; in test [2] it was 53 nM; in test [3] it was 853 nM.

Turning to `CCCCc1nc2c(N)nc3ccsc3c2n1Cc1ccc(CNCC2CCN(C(=O)OC(C)(C)C)CC2)cc1` [Compound 264, tert-butyl 4-(((4-((4-amino-2-butyl-1H-imidazo[4,5-d]thieno[3,2-b]pyridin-1-yl)methyl)benzyl)amino)methyl)piperidine-1-carboxylate], the figures for the EC50 in test [1], in test [2] and in test [3] were more than 1000 nM, 83 nM and 153 nM, respectively.

Turning to `CCNCc1nc2c(N)nc3ccsc3c2n1Cc1ccc(CN2CCNCC2)cc1` [Compound 268, 2-((ethylamino)methyl)-1-(4-(piperazin-1-ylmethyl)benzyl)-1H-imidazo[4,5-d]thieno [3,2-b]pyridin-4-amine], the concentration for a half-maximal effect (EC50) in test [1], in test [2] and in test [3] was more than 1000 nM in each case.

Consider `CCNCc1nc2c(N)nc3ccsc3c2n1Cc1ccc(CN(CC)CC)cc1` [Compound 269, 1-(4-((diethylamino)methyl)benzyl)-2-((ethylamino)methyl)-1H-imidazo[4,5-d]thieno [3,2-b]pyridin-4-amine], for which the results for the EC50 in test [1], in test [2] and in test [3] were more than 1000 nM, 186 nM and 557 nM, respectively.
